Patent publication US4376780A, “Novel phenethylamine derivatives and bronchdilator containing the same” (Eisai Co., Ltd., priority 1976, dated 1983)
“Also recorded” adds a separate entry of the source. Counter-ions that a name gives are not always drawn. Like-named read-outs stand apart in the source and are kept apart here.

Columns and labels:
[1] = test system: air way resistance increased by histamine; assay: Inhibitory effect on the increasing reaction of the air-way resistance of histamine (Konzett-Rossler), anesthetized dogs; assay type: in vivo
Procedure: Inhibitory Effect On The Increasing Reaction Of The Air-Way Resistance Of Histamine
(§1) Normally healthy dogs (body weights were 10-15 Kg) were used as subject animals, and anesthetized with sodium pentobarbital urethane. The compounds to be examined were injected into the femoral vein of the dog. The inhibitory effect on the increasing reaction of the histamine (10 μg/Kg were administered) to the air way resistance was determined by Konzett-Rossler method.

[2] = test system: blood pressure in the anesthetized dogs; assay: Effect on the blood pressure, anesthetized dogs; assay type: in vivo
Procedure: as §1
Effect On The Blood Pressure
Using the anesthetized dogs as same as pharmacological experiment 2, and injecting the compounds to be examined into the dogs from the femoral vein, the effect on the blood pressure was examined.

[3] = test system: heart beat numbers of the guinea pig; assay: Effect on the heart beat numbers, conscious guinea pigs; assay type: in vivo; settings: for increasing action to the heart beat numbers of the guinea pig: calculation from the product of the intensity action with the durability
Procedure: Effect On The Heart Beat Numbers
(1) Conscious guinea pigs
The guinea pigs were used, in which electrodes of stainless steel were pierced and put in both forelegs of the respective guinea pigs under previous anesthesia (after 24 hours from this operation).
The guinea pigs were isolated one by one in observation boxes, recorded their electrocardiogram (the first induction) under quiet circumstances, and heart beat numbers were counted.
All compounds to be examined were administered orally. The recording and measuring were carried out three times before the administration and with the lapse of time until 180 minutes after the administration.
Calculation From The Product Of The Intensity Action With The Durability

[4] = test system: asthmatous fit caused by the histamine spray; assay: Protecting effect against the dyspnea (asthmatous fit) caused by histamine spray, guinea pigs, oral; assay type: in vivo, guinea pigs of Hartley strain; settings: for ED50: Cavia porcellus, read-out: ED 50, protecting effect on the asthmatous fit caused by the histamine spray; for protecting effect relative to the two controls, salbutamol and isoproterenol / durability action of the protecting effect / Ratio to isoproterenol (protecting effect): guinea pigs; for durability action of the protecting effect: in words; for Ratio to isoproterenol (protecting effect): isoproterenol = 100
Procedure: Protecting Effect Against The Dyspnea Caused By The Histamine
Male guinea pigs of Hartley strain were used. Aqueous solutions of the compounds to be examined were prepared in various concentrations, and administered orally to the guinea pigs, in a dose of 10 ml/Kg, respectively. After the oral administration, the guinea pigs were taken in a dome. Histamine solution in a concentration of 0.1% was sprayed through a nebulizer at a blow rate of 3500 ml/min. Two symptoms of hypoxia and fit of caughing were used as indices, and a probable appearing time of said two symptoms was watched and observed for 20 minutes from the start of the spraying.
The protecting effect was judged to be effective with the appearing time more than the double of the mean appearing time in 33 examples of the groups wherein physiological saline water was administered.

[5] = test system: heart beat numbers of the anesthetized dogs; assay: Effect on the heart beat numbers, anesthetized dogs; assay type: in vivo; settings: intravenous
Procedure: as §1
Using anesthetized dogs as same as the pharmacological experiment 2, and injecting the compounds to be examined into the dogs from the femoral vein thereof, the increasing actions to the heart beat numbers were examined.

[6] = Acute toxicity, mice, oral; settings: mouse, in vivo, 7 days observation
From the text: There was examined and observed the acute toxicity of the compounds to be examined for 7 days in the case of oral administration to mice.

[7] = oral, male Hartley guinea pigs, 0.1% histamine spray

SMILES	inhibition at 0.003 mg/kg ([1]; Canis lupus familiaris, iv, read-out: inhibitory effect on the increasing reaction of the histamine to the air way resistance) [%]	inhibitory effect on air way resistance, comparison and durability in words ([1]; intravenous, anesthetized dogs, fumarate)	dosage showing remarkable depression effect upon the blood pressure ([2]; intravenous, anesthetized dogs)	increasing action to the heart beat numbers of the guinea pig ([3]; 0.3 mg/Kg oral)	increasing action to the heart beat numbers of the guinea pig ([3]; 3 mg/Kg oral)	increasing action to the heart beat numbers of the guinea pig ([3]; 30 mg/Kg oral)	increasing action to the heart beat numbers, in words ([3]; oral, conscious guinea pigs, fumarate)	ED50 ([4]; po) [mg/kg]	protecting effect relative to the two controls, salbutamol and isoproterenol ([4]; oral)	durability action of the protecting effect ([4]; oral)	Ratio to isoproterenol (protecting effect) ([4]; oral)	dosage showing increasing action to the heart beat numbers [5]	increasing action to the heart beat numbers, comparison in words [5]	LD50 at 168 h [6] [mg/kg]	ED50 [4, 7] [mg/kg]	inhibition at 0.03 mg/kg ([1]; Canis lupus familiaris, 10 min, 30 μg/Kg, intravenous, after 10 minutes, read-out: inhibitory effect on air way resistance 10 minutes after the administration) [%]	minimal effective dose ([1]; Canis lupus familiaris, intravenous, immediately after administration, read-out: dose with distinct inhibitory effect on air way resistance immediately after the administration) [mg/kg]	depression effect on the blood pressure, in words ([2]; dog, in vivo, iv)	durability effect on the blood pressure, in words ([2]; dog, in vivo, iv)
COCc1cc(C(O)CNC(C)Cc2ccc(OC)cc2)ccc1O.O=C(O)/C=C/C(=O)O (stereo not drawn) [Compound A, 1-(4-hydroxy-3-methoxymethylphenyl)-2-(α-methyl-4-methoxyphenethylamino)ethanol fumarate]	> 50	almost same as those of salbutamol	more than 3 μg/Kg	36.8	75.0	93.7	distinct increasing action to the heart beat numbers with the dosage of 0.3 mg/Kg; also recorded: relatively same as that of Salbutamol and weaker than that of Isoproterenol	0.39	5-7 times	extended obviously longer than those of the two controls	744	more than 3 μg/Kg	weaker than that of Isoproterenol, and rather more intense than that of Salbutamol	1050	–	–	–	–	–
COCc1cc(C(O)CNC(C)Cc2ccc3c(c2)OCO3)ccc1O (stereo not drawn) [Compound B, 1-(4-hydroxy-3-methoxymethylphenyl)-2-(α-methyl-3,4-methylenedioxyphenethylamine)ethanol oxalate]	–	–	–	–	–	–	–	–	5-7 times	extended obviously longer than those of the two controls	518	–	–	1200	0.56	–	–	–	–
COCc1cc(C(O)CNC(C)Cc2ccc(O)cc2)ccc1O.O=C(O)C(=O)O (stereo not drawn) [Compound C, 1-(4-hydroxy-3-methoxymethylphenyl)-2-(α-methyl-4-hydroxyphenethylamino)ethanol oxalate]	–	–	–	–	–	–	–	0.36	5-7 times	extended obviously longer than those of the two controls	806	–	–	1200	–	–	–	–	–
CC(C)NCC(O)c1ccc(O)c(O)c1 [Isoproterenol, L-isoproterenol hydrochloride, reference compound]	–	–	–	87.3	86.9	147.0	–	–	–	–	–	–	–	–	2.9	10	~0.001	more intense depression effect than that of the compound A of this invention	relatively short in durability effect
CC(C)(C)NCC(O)c1ccc(O)c(CO)c1.Cl (stereo not shown) [Salbutamol, 1-(4-hydroxy-3-hydroxymethylphenyl)-2-(t-butylamino)-ethanol hydrochloride, reference compound]	–	–	–	–	–	–	–	–	–	–	–	–	–	–	2.25	–	–	rather weaker tendency	–
